Where two headings read alike, the source gives them in different places. No end group written: not given here.
Key:
[1] = system: human fibroblastoid line M1 cells; settings: for Block of the inhibitory effect of shared epitope peptide (Bead*0401) on 2CA-induced DNA repair: prior incubation of M1 cells: L-NMA 5 mM overnight, KT5823 1 μM 10 min; for Inhibition of cAMP-dependent (2CA-induced) DNA repair induction / genoprotective pathway by pentapeptide: M1 cells preincubated overnight with 50 μg/ml synthetic pentapeptide; for Block of 2CA-triggered DNA repair activity: 10 μM 2CA, co-incubation with various concentrations
Description: To further determine the signaling pathways involved in DNA repair induction, the inventors used the Trevigen CometAssay™ kit (Cat. No. 4250-50-K). The CometAssay is a single-cell gel electrophoresis method that can measure a variety of types of DNA damage, and repair of damage, in individual cells. The assay is based on the alkaline lysis of labile DNA at sites of damage. The unwound, relaxed DNA is able to migrate out of the cell during electrophoresis and can be visualized by SYBR Green staining.
To quantify DNA damage, cells were collected and three parallel samples were processed (a negative control, a DNA damage control (H2O2) and a sample subjected to H2O2 following exposure to various modulators of the cAMP signaling pathway). Cells are then washed in PBS. The washed cells are combined with molten low-melting agarose (Trevigen Cat. No. 4250-50-02) and transferred to a CometSlide™ (Trevigen Cat. No. 4250-100-03). The slides are immersed in lysis buffer for 30 min, on ice, in the dark. The slides are then treated with alkali buffer for 20 to 60 min at room temperature in the dark. The slides are then electrophoresed in buffer for 10 min at 20 volts, then fixed in methanol and ethanol. The slides are then stained with SYBR green (Trevigen Cat. No. 4250-50-05) solution and fluorescently imaged with a Diagnostic Instruments digitized camera, mounted on a Nikon Eclipse E400 microscope. Scion Image software is used to quantitate the comet tail intensity. Each data point is derived from tail fluorescent intensity determination in 50–100 individual cells. Data is presented as % DNA repair (the percent decrement in tail fluorescence intensity in agonist or antagonist-treated cells, relative to the intensity recorded in cells treated with H2O2 only)±SEM. (R.U.s)
To directly examine that possibility, cells were incubated overnight with synthetic peptides corresponding to the region contained within amino acids 65–79 and their ability to mount DNA repair activity in response to cAMP-elevating agents was determined. M1 cells were preincubated overnight with 50 μg/ml of synthetic peptides corresponding to the region surrounding the third allelic hypervariable region (aa 65–79) of each of the following DRβ chains: *0401 (65–79*0401) [SEQ ID NO: 5], *0402 (65–79*0402) [SEQ ID NO: 7], *0403 (65–79*0403) [SEQ ID NO: 9] or *0404(65–79*0404) [SEQ ID NO: 10]. At the end of the preincubation, cells were collected, washed and 2CA-induced DNA repair was determined as above. Table 3 (above) lists the different third allelic hypervariable region peptides used in the entire study disclosed here.
A modified method as described previously by Auger et al. [Nature Med 2:306–310 1996] was used. Briefly, cyanogen bromide activated Speharose 4B (1.5 ml) was washed with 1 mM HCl and incubated with peptides in 0.1 M NaHCO3 and 0.5 M NaCl (pH 8) buffer overnight at 4° C. For each peptide, 5 mg was used per milliliter of Sepharose. Free Sepharose groups were blocked with 0.2 M glycine (pH 8) for 2 hours at room temperature. Columns were washed at 4° C. with the following buffers: 0.1 M NaHCO3, 0.5 M NaCl (pH 8) buffer, then 0.5 M CH3COONa (pH 4) buffer and finally PBS at pH 7.5. M1 cells were plated at a density of 0.5×10^6 cells per well (6 well plate) in 10% FBS DMEM medium until 70–80% confluence. Prior to incubation with peptides, cultures were changed to serum-free DMEM medium, then evenly overlaid with 50 μg bead conjugated peptides, and incubated for the indicated period. Soluble peptides were added overnight to M1 cells at a concentration of 50 μg/ml.

[2] = system: hybrid neuroblastoma-glioma NG108–15 cell line; assay: Neuroprotection in acutely stressed NG108–15 cells; assay type: cell-based; settings: near-confluent NG108–15, 50 μg/ml peptide, 24 hr
Method: In order to assess whether shared epitope-containing peptides exert a neuroprotective effect, preliminary experiments were carried out with the hybrid neuroblastoma-glioma NG108–15 cell line. Cells (10^5/ml) were first cultured overnight at near-confluence in 24-well plates in DMEM medium supplemented with 1% fetal calf serum (FCS). Under these conditions, NG108–15 cells show a flat, multipolar morphology and neurite formation. After 20 hours, cells were stressed acutely in serum-free medium (by aspiration of the medium and replacement with serum-free DMEM) with 50 μg/ml of peptides and evaluated morphologically at different time points thereafter. […] Morphological differences between cultures treated with different peptides could be observed as early as 5–6 hrs after treatment. The photographs shown were taken at the 24 hr time point. In another experiment (FIG. 12C), NG108–15 cells were cultured at low cell density (2×10^4/ml) in 1% FCS-containing DMEM medium overnight. The next day cells were subjected to acute stress in serum-free and low glucose (RPMI1640) medium (after aspiration of the 1% FCS DMEM) in the presence of 50 μg/ml of either 65–78*0401 [SEQ ID NO: 6] or 65–78*0402 [SEQ ID NO: 8] peptides. After 72 hours, cells were fixed with 1% formaldehyde and inspected microscopically. Mean±SEM was determined by averaging cell counts in eight randomly-selected microscopic fields in 200× magnification. Neurite-positive cells were defined as cells with one or more projections extending at least twice as long as the cell diameter. […] (FIG. 12C). The calculated number of neurite-positive cells was over 6-fold higher in shared epitope-containing peptide-cultured cells. When cultured in the presence of lysophosphatidic acid or high concentrations of serum, neuronal cells undergo neurite retraction (130). […] Thus, it is concluded that shared epitope-containing peptides may exert neuroprotective effects.

[3] = system: M1 cells; assay: Intracellular cAMP level (enzyme immunoassay) in M1 cells after 2CA; assay type: cell-based, human; settings: M1 cells preincubated 10 min with peptide-conjugated beads, 10 or 100 μM 2CA
Method: cAMP was determined by using an Amersham Pharmacia Biotech cAMP enzymeimmunoassay (EIA) system (code RPN 225). The reagents are prepared as described by the manufacturer (lysis reagents 1 and 2, the standard for the non-acetylation assay, the anti-cAMP antiserum, the cAMP peroxidase conjugate and wash buffer). […] Samples are added, followed by the antiserum solution. Following the recommended incubation, cAMP-peroxidase conjugate is added and incubated according to the recommended protocol. Each well is then aspirated and washed, and enzyme substrate is added and incubated. The results can then be read at 630 nm or at 450 nm (depending on the time of incubation and method of stopping the reaction), again according to the manufacturer's protocol.
A.) cAMP levels were assayed in M1 cells that were preincubated for 10 minutes with peptide-conjugated beads [Bead*0401, SEQ ID NO:6; Bead*0402, SEQ ID NO: 8], and intracellular cAMP level changes in response to stimulation with either 10 μM (FIG. 10A, top) or 100 μM (FIG. 10A, bottom) of 2CA were determined at different time points. cAMP levels were measured using a commercial enzyme immunoassay kit from Pharmacia. Results are expressed as fold increase of cAMP above baseline levels.

[4] = system: Protein kinase A (PKA); assay: PKA activity in M1 cells after 2CA; assay type: cell-based, human; settings: M1 cells preincubated with peptide-conjugated beads, 10 μM 2CA
Method: Protein kinase A (PKA) was measured using the Life Technologies™ Protein Kinase A (cAMP-dependent Protein Kinase) Assay System (Cat. No. 13128-012). The basis of the assay system is the use of a heptapeptide substrate and a 17-amino acid inhibitor peptide (which is valuable for proving PKA-specific protein kinase activity). Four assay conditions per experimental condition are recommended by the manufacturer (+/− inhibitor and +/− cAMP) to determine total PKA-specific kinase activity and proportion of PKA activated in the cells or tissue of interest. Briefly, the four parallel assay conditions are set up for each of the four assay conditions for a given cell or tissue sample, according to the manufacturer's instructions. Substrate and [γ-^32P]ATP (3000–6000 Ci/mmol stock solution) are then added to each tube, and incubated according to the manufacturer's instructions. Following the incubation period, a sample from each tube is spotted onto a […] disc, which is the acid washed prior to scintillation counting (all according to the manufacturer's instructions). Activity can then be determined as described by the manufacturer of the kit.
B.) PKA activity was determined in M1 cells preincubated with peptide-conjugated beads [Bead*0401, SEQ ID NO: 6; Bead*0402, SEQ ID NO: 8], at different time points following treatment with 10 μM 2CA as above.

COC(=O)[C@@]1(OC)C[C@H]2O[C@]1(C)n1c3ccccc3c3c4c(c5c6ccccc6n2c5c31)C(=O)N(C)C4 [KT5823, reference compound]
Block of the inhibitory effect of shared epitope peptide (Bead*0401) on 2CA-induced DNA repair [1]: could be blocked

Gln Lys Arg Leu Ala (QKRLA)
Inhibition of cAMP-dependent (2CA-induced) DNA repair induction / genoprotective pathway by pentapeptide [1]: equally effective in suppressing cAMP signaling | Inhibition of cAMP-dependent (2CA-induced) DNA repair induction / genoprotective pathway by pentapeptide ([1]; listed as #3): efficiently inhibited the genoprotective pathway

O=S(=O)(NCCNC/C=C/c1ccc(Br)cc1)c1cccc2cnccc12 [H-89, reference compound]
Block of 2CA-triggered DNA repair activity [1]: could also be blocked

CC(=O)N[C@H](C(=O)O)C(C)(C)SN=O (racemic) [SNAP, S-Nitroso-N-Acetylpenicillamine, reference compound]
Block of 2CA-triggered DNA repair activity [1]: completely blocked

Gln Arg Arg Ala Ala (QRRAA)
Inhibition of cAMP-dependent (2CA-induced) DNA repair induction / genoprotective pathway by pentapeptide [1]: inhibited completely cAMP-dependent DNA repair induction | Inhibition of cAMP-dependent (2CA-induced) DNA repair induction / genoprotective pathway by pentapeptide ([1]; listed as #2): efficiently inhibited the genoprotective pathway

CCCn1c(=O)[nH]c(=O)c2[nH]cnc21 [enprofylline, reference compound]
Block of 2CA-triggered DNA repair activity [1]: could be blocked

CCCn1c(=O)c2[nH]c(-c3ccc(OCC(=O)NCCN)cc3)nc2n(CCC)c1=O [XAC, reference compound]
Block of 2CA-triggered DNA repair activity [1]: could be blocked

KDILEDERAAVDTY [65–78*0402, control peptide, amino acids 65–78 of the β chain encoded by the HLA-DRB*0402 allele]
Cell morphology after acute serum-free stress [2]: adjacent cells showed a rounding effect and collapsed into aggregates

HBc*0401: recombinant chimeric hepatitis B core protein with insertion of amino acids 65–79 of the β chain encoded by HLA-DRB*0401
Suppression of cAMP signaling (2CA-induced DNA repair) ([1]; M1 cells preincubated overnight with 50 μg/ml recombinant HBc particles): effectively suppressed cAMP signaling

Bead*0402: Sepharose beads chemically conjugated to 14-mer peptide, residues 65–78 of DRβ*0402 chain [SEQ ID NO: 8] (KDILEDERAAVDTY; also: conjugated to Sepharose beads)
cAMP level response to 2CA [3]: mounted substantial response to the agonist | PKA activation following 2CA [4]: mounted substantial response to the agonist

Bead*0401: Sepharose beads chemically conjugated to 14-mer peptide, residues 65–78 of DRβ*0401 chain [SEQ ID NO: 6] (KDLLEQKRAAVDTY; also: conjugated to Sepharose beads)
Block of cAMP-mediated (2CA-induced) DNA repair by Sepharose bead-conjugated peptide ([1]; M1 cells preincubated for various times with peptide-conjugated beads): blocked cAMP-mediated DNA repair | cAMP level response to 2CA [3]: failed to increase cAMP levels | PKA activation following 2CA [4]: failed to increase cAMP levels or activate PKA

Gln Glu Cys Leu Ala (QECLA)
Inhibition of cAMP-dependent (2CA-induced) DNA repair induction / genoprotective pathway by pentapeptide [1]: failed to do so

Gln Lys Arg Ala Ala (QKRAA)
Inhibition of cAMP-dependent (2CA-induced) DNA repair induction / genoprotective pathway by pentapeptide [1]: had a similar effect | Inhibition of cAMP-dependent (2CA-induced) DNA repair induction / genoprotective pathway by pentapeptide ([1]; listed as #1): efficiently inhibited the genoprotective pathway

Gln Lys Cys Leu Ala (QKCLA)
Inhibition of cAMP-dependent (2CA-induced) DNA repair induction / genoprotective pathway by pentapeptide [1]: equally effective in suppressing cAMP signaling | Inhibition of cAMP-dependent (2CA-induced) DNA repair induction / genoprotective pathway by pentapeptide ([1]; listed as #5): efficiently inhibited the genoprotective pathway

Nc1nc2c(nc(Br)n2[C@@H]2O[C@@H]3COP(=O)(O)O[C@H]3[C@H]2O)c(=O)[nH]1 [8-Br-cGMP, 8-bromo-cyclic GMP, reference compound]
Block of 2CA-triggered DNA repair activity [1]: completely blocked

CNC(=N)NCCC[C@H](N)C(=O)O [L-NMA, NG-methyl-L-arginine, reference compound]
Block of the inhibitory effect of shared epitope peptide (Bead*0401) on 2CA-induced DNA repair [1]: could be blocked

CCCCC[C@H](O)/C=C/[C@H]1[C@H](O)CC(=O)[C@@H]1CCCCCCC(=O)O [PGE1, prostaglandin E1, reference compound]
DNA repair triggered ([1]; M1 cells stimulated 20 min with various concentrations before 100 μM H2O2): triggered in all cases DNA repair

Source: patent publication US7208154B2, “Methods and compositions for the treatment of MHC-associated conditions” (Regents of the University of Michigan, priority 2002, dated 2007)
